In PMC3827198, “Characterisation of AmphiAmR11, an Amphioxus (Branchiostoma floridae) D2-Dopamine-Like G Protein-Coupled Receptor” (PLoS ONE, 2013):
Counter-ions that a name gives are not always drawn. Like-named read-outs stand apart in the source and are kept apart here.

Key:
[1] = test system: dopamine-induced ERK1/2 activation; assay: Effect of pertussis toxin and signalling inhibitors on agonist-induced ERK1/2 activation in AmphiAmR11-expressing CHO-K1 cells; format: cell-based, Chinese hamster; conditions: 10 µM inhibitor, 10 nM dopamine, 5 minutes
Procedure: Phospho-extracellular signal-related kinase (Phospho-ERK) levels were determined essentially as described previously. Minor modifications have been described. ERK1/2 phosphorylation levels were quantified by densitometry. The developed films were scanned in and analysed using the software program, Aida. The data generated by Aida was then processed using Microsoft Excel. Values for the kinase expression and activity levels were defined as 100% in the control samples. Student’s T-test (two-tailed and unpaired) was used to test for significance.
Figure 5 Effect of pertussis toxin and signalling inhibitors on dopamine-induced ERK1/2 activation in AmphiAmR11-expressing CHO-K1 cells. For the pertussis toxin experiment, AmphiAmR11-expressing CHO-K1 cells were pre-incubated with pertussis toxin (200 ng/ml) for 16 hours prior to serum-starvation for 2 hours in the absence of the toxin. Cells were then stimulated for 5 mins with 10 nM dopamine (open bar) or F-12 Hams control (black bar). For all other inhibitors, AmphiAmR11-expressing CHO-K1 cells were serum starved for 2 hours including incubation with 10 µM inhibitor or F-12 Hams control for the final 20 (AG1296 and AG1478) or 30 (PP2, LY294002, Ro31-8220, U0126, U73122 and U73343) minutes. Cells were then stimulated for 5 minutes with 10 nM dopamine […] in the presence of the inhibitor. Basal measurement in the absence of dopamine and inhibitor (first black bar) and the dopamine-only response in the absence of inhibitor (first open bar) are shown. (A) Representative blots from three or four independent experiments. […] Data are expressed as the mean + SEM. n = 3 - 4. DA, dopamine; PTX, pertussis toxin; Ro, Ro 31-8220; LY, LY294002.
Figure S3. Time courses for the effect of dopamine and tyramine on ERK1/2 phosphorylation in AmphiAmR11-expressing CHO-K1 cells. (A and B) AmphiAmR11-expressing CHO-K1 cells were serum-starved for 2 hours, prior to stimulation with tyramine or dopamine at the specified concentration for the specified length of time. Equal quantities of cell lysates were separated by SDS-PAGE and analysed for pERK or tERK by Western blotting. (C and D): AmphiAmR11-expressing CHO-K1 cells were incubated with pertussis toxin (200 ng/mL) for 16 hours followed by stimulation as described for Figures A and B. (A to D) Representative blot for each condition from three to four independent experiments. (E) Summary of the quantified blots. Data are expressed as the mean ± SEM. n = 3-4. PTX, pertussis toxin; Min, minutes.

[2] = test system: D2-dopamine receptors; set-up: method as in PMID 10531409, PMID 9572301; conditions: cited from earlier work
[3] = test system: D3-dopamine receptors; set-up: method as in PMID 10531409, PMID 9572301; conditions: cited from earlier work
[4] = molecular target: T1, AmphiAmR11 (Branchiostoma floridae, UniProt A0PF35); assay: Inhibition of forskolin-stimulated cAMP levels in AmphiAmR11-expressing CHO-K1 cells (agonist mode); format: cell-based; conditions: for Decrease of forskolin-stimulated cAMP levels by antagonist in the absence of agonist: 1 μM antagonist; for Agonist type at AmphiAmR11 (full or partial): cAMP assay; for Inhibition of forskolin-stimulated cAMP levels (maximal): concentration-response curves, absence of other agonist
T1 sequence (A0PF35 entry or part of it): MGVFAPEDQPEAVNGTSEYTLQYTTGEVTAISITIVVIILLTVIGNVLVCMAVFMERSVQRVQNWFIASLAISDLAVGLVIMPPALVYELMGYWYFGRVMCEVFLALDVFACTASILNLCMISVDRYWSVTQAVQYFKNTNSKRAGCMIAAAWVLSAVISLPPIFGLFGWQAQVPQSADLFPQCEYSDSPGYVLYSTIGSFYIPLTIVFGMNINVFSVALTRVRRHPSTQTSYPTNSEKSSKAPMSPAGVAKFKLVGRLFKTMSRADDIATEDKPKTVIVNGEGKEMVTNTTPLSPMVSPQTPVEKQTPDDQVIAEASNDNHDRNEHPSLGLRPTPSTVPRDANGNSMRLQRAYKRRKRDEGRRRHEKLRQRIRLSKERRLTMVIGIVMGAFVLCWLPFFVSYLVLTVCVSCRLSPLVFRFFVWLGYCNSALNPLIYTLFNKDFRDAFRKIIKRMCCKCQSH
Procedure: CHO-K1 cells were maintained in Ham’s F-12 nutrient media (Invitrogen Life Sciences) supplemented with 10% charcoal-stripped foetal bovine serum (CS-FBS) (Hyclone, Cramlington, UK), 50 U/μg penicillin/streptomycin and 4 mM L-glutamine (Invitrogen Life Sciences) in 5% CO2 at 37°C. Stably transfected cell lines were generated by the transfection of CHO-K1 cells using Lipofectamine (Invitrogen Life Sciences) as described previously [8, 9].
cAMP levels in stably transfected CHO-K1 cells were determined as described previously [8, 9, 21], except 100 µM isobutylmethylxanthine (IBMX) was used. cAMP levels are represented as a percentage of basal samples unless otherwise stated. Student’s T-test (two-tailed and unpaired) was used to test for significance. Unless otherwise stated, all data are shown as mean ± SEM. Each data point plotted was the mean of data obtained from at least three experiments. Within each experiment three separate replicate wells were analysed for each condition and the cAMP assays on each of the wells was carried out in duplicate.
Figure 1 Effect of biogenic amines and synthetic agonists on forskolin-stimulated cAMP levels in AmphiAmR11-expressing CHO-K1 cells. Cells were pre-incubated with 100 µM IBMX for 20 min, followed by incubation with 10 µM forskolin and 100 µM IBMX in the presence of increasing concentrations of various biogenic amines (A) or synthetic agonists (B) for a further 20 min. Data are expressed as the mean ± SEM. n ≥ 3.

[5] = molecular target: T1, AmphiAmR11; assay: Block of tyramine-induced inhibition of forskolin-stimulated cAMP levels in AmphiAmR11-expressing CHO-K1 cells; format: cell-based; conditions: 30 nM tyramine; for Block of tyramine-induced inhibition of forskolin-stimulated cAMP levels: 10 µM forskolin
[6] = molecular target: T1, AmphiAmR11; assay: ERK1/2 phosphorylation in AmphiAmR11-expressing CHO-K1 cells (Western blotting); format: cell-based; conditions: for Effect of antagonist on ERK1/2 phosphorylation in the absence of dopamine: 1 μM antagonist
[7] = molecular target: T1, AmphiAmR11; assay: Block of dopamine-induced ERK1/2 activation in AmphiAmR11-expressing CHO-K1 cells by antagonists; format: cell-based; conditions: 1 µM antagonist, 10 nM dopamine, 5 min
[8] = test system: human 5HT1A receptor; conditions: cited from earlier work
[9] = test system: DD2R; set-up: method as in PMID 12391323; conditions: cited from earlier work; for Antagonist effect at invertebrate D2-like receptor DD2R at high concentration: 10 µM
[10] = test system: CeDOP2S; set-up: method as in PMID 12887685; conditions: cited from earlier work; for Antagonist effect at invertebrate D2-like receptor CeDOP2S at high concentration: 10 µM
[11] = test system: CeDOP2L; set-up: method as in PMID 12887685; conditions: cited from earlier work; for Antagonist effect at invertebrate D2-like receptor CeDOP2L at high concentration: 10 µM
[12] = test system: CHO cell cyclic AMP; assay: CHO cell cyclic AMP level after forskolin; format: cell-based, Chinese hamster; conditions: 10 µM forskolin; basal 5.1 ± 1.7
Procedure: cAMP levels in stably transfected CHO-K1 cells were determined as described previously, except 100 µM isobutylmethylxanthine (IBMX) was used. cAMP levels are represented as a percentage of basal samples unless otherwise stated. Student’s T-test (two-tailed and unpaired) was used to test for significance. Unless otherwise stated, all data are shown as mean ± SEM. Each data point plotted was the mean of data obtained from at least three experiments. Within each experiment three separate replicate wells were analysed for each condition and the cAMP assays on each of the wells was carried out in duplicate.
Forskolin was used both to increase basal cAMP levels to make it easier to detect increases and decreases in cAMP levels in the same experiments and also to potentiate responses to agonists to more accurately determine their threshold effects [see 22]. A non-saturating 10 µM concentration of forskolin was used. Basal levels of CHO cell cyclic AMP were 5.1 ± 1.7 pmoles / mg protein (n = 3) and these were raised to 1053.7 ± 4.8 pmoles / mg protein after exposure to 10 µM forskolin. Protein levels were determined using a Bradford assay.

[13] = test system: AmphiAmR4; set-up: method as in PMID 23183848; conditions: cited from earlier work
[14] = molecular target: T1, AmphiAmR11; assay: cell-based; format: cell-based
[15] = molecular target: T1, AmphiAmR11; assay: Calcium mobilisation in AmphiAmR11-expressing CHO-K1 cells (Fura-2, percentage of responding cells per field of view); format: cell-based; conditions: 10 nM biogenic amine, compared with dopamine
Procedure: Stably transfected CHO-K1 cells were assayed for changes in intracellular calcium levels using an Olympus Cell^R imaging system and the fluorescent indicator Fura-2, as described previously, with modifications described by Bayliss et al.. At 1 minute into the experiment, a buffer control was added and at 2 minutes into the experiment, the specified concentration of agonist was added. A single coverslip of cells was used per concentration of agonist and the percentage of cells that responded per field of view was calculated. The results from each coverslip gave an n of 1 and each agonist concentration was repeated at least three times on different days.
Figure 6 Effect of biogenic amines and calcium pathway inhibitors on calcium mobilisation in AmphiAmR11-expressing CHO-K1 cells. AmphiAmR11-expressing cells were exposed to increasing concentrations (A) or 10 nM (B) of biogenic amines for 3 minutes and the number of responding cells per field of view were calculated. Data are expressed as the mean ± SEM. n ≥ 3. FOV, field of view; DA, dopamine; TA, tyramine; NA, noradrenaline; Adr, adrenaline; OA, octopamine.

SMILES: O=c1cc(N2CCOCC2)oc2c(-c3ccccc3)cccc12 [LY294002]
- Effect of inhibitor on dopamine-induced ERK1/2 phosphorylation [1]: significantly reduced
- Effect on D2-mediated ERK1/2 activation in CHO cells [2]: partially reduce
- Effect on D3-mediated ERK1/2 activation in CHO cells [3]: partially reduce

SMILES: COC(=O)[C@@H]1[C@H]2C[C@H]3c4[nH]c5ccccc5c4CCN3C[C@@H]2CC[C@@H]1O [yohimbine, yohimbine hydrochloride]
- EC50 [4]: 17.1 nM
- Decrease of forskolin-stimulated cAMP levels by antagonist in the absence of agonist ([4]; 10 µM forskolin): could inhibit forskolin-stimulated cAMP levels
- Agonist type at AmphiAmR11 (full or partial) [4]: full agonists
- Inhibition of forskolin-stimulated cAMP levels (maximal) [4]: greater than 90%
- Apparent enhancement of tyramine-induced inhibition of forskolin-stimulated cAMP levels ([5]; 1 μM antagonist): appeared to enhance
- Block of tyramine-induced inhibition of forskolin-stimulated cAMP levels ([5]; 1 μM antagonist): no significant blocking effect
- Blocking effect on tyramine-induced response at reduced antagonist concentrations ([5]; varying concentrations of antagonist): no blocking effect
- Effect of antagonist on ERK1/2 phosphorylation in the absence of dopamine [6]: increase in ERK1/2 phosphorylation
- Block of dopamine-induced ERK1/2 activation [7]: no significant effect
- Agonist activity at human 5HT1A receptor [8]: partial agonist activity

SMILES: COC(=O)[C@H]1[C@H]2C[C@H]3c4[nH]c5ccccc5c4CCN3C[C@H]2CC[C@@H]1O [rauwolscine, rauwolscine hydrochloride]
- EC50 [4]: 121 nM
- Decrease of forskolin-stimulated cAMP levels by antagonist in the absence of agonist ([4]; 10 µM forskolin): could inhibit forskolin-stimulated cAMP levels
- Agonist type at AmphiAmR11 (full or partial) [4]: full agonists
- Inhibition of forskolin-stimulated cAMP levels (maximal) [4]: greater than 90%
- Block of tyramine-induced inhibition of forskolin-stimulated cAMP levels ([5]; 1 μM antagonist): no significant blocking effect
- Effect of antagonist on ERK1/2 phosphorylation in the absence of dopamine [6]: increase in ERK1/2 phosphorylation
- Block of dopamine-induced ERK1/2 activation [7]: no significant effect
- Agonist activity at human 5HT1A receptor [8]: partial agonist activity

SMILES: CN1CCc2cc(Cl)c(O)cc2[C@@H](c2ccccc2)C1 [SCH23390, R(+)-7-chloro-8-hydroxy-3-methyl-1-phenyl-2,3,4,5-tetrahydro-^1H-3-benzazepine hydrochloride]
- Block of tyramine-induced inhibition of forskolin-stimulated cAMP levels ([5]; 1 μM antagonist): no significant blocking effect
- Effect on dopamine-mediated signalling via DD2R [9]: not to affect
- Effect on dopamine-mediated signalling via CeDOP2S [10]: not to affect
- Effect on dopamine-mediated signalling via CeDOP2L [11]: not to affect

SMILES: CC(C)(C)[C@]1(O)CCN2C[C@H]3c4ccccc4CCc4cccc(c43)[C@@H]2C1 [butaclamol, (+)-butaclamol hydrochloride]
- Block of tyramine-induced inhibition of forskolin-stimulated cAMP levels ([5]; 1 μM antagonist): no significant blocking effect
- Effect of antagonist on ERK1/2 phosphorylation in the absence of dopamine [6]: did not exhibit any agonistic properties
- Block of dopamine-induced ERK1/2 activation [7]: no significant effect
- Antagonist effect at invertebrate D2-like receptor DD2R at high concentration [9]: only a partial effect
- Antagonist effect at invertebrate D2-like receptor CeDOP2S at high concentration [10]: only a partial effect
- Antagonist effect at invertebrate D2-like receptor CeDOP2L at high concentration [11]: only a partial effect

SMILES: C=C[C@@]1(C)CC(=O)[C@]2(O)[C@@]3(C)[C@@H](O)CCC(C)(C)[C@@H]3[C@H](O)[C@H](OC(C)=O)[C@@]2(C)O1 [forskolin, Forskolin]
- CHO cell cyclic AMP level after exposure to forskolin [12]: 1053.7 ± 4.8 pmoles / mg protein

SMILES: c1ccc2c(CC3=NCCN3)cccc2c1 [naphazoline, naphazoline hydrochloride]
- Effect on forskolin-stimulated cAMP levels at 1 µM ([4]; 1 µM agonist, 10 µM forskolin, 100 µM IBMX, 20 min): most effective agonists
- EC50 ([4]; 10 µM forskolin, 100 µM IBMX, 20 min, full concentration response curves, read-out: EC50 for decrease in forskolin-stimulated cAMP levels): 0.287 nM
- Effect on ERK1/2 phosphorylation at 100 nM ([6]; 100 nM synthetic agonist, 5 min): increased the ERK1/2 phosphorylation level above that of the basal condition
- Effect on ERK1/2 phosphorylation at 1 µM ([6]; 1 µM synthetic agonist, 5 min, dopamine as reference): most effective of the synthetic agonists
- Agonist activity at AmphiAmR4 [13]: most potent agonist

SMILES: O=C(CCCN1CCC2(CC1)C(=O)NCN2c1ccccc1)c1ccc(F)cc1 [spiperone, spiperone hydrochloride]
- Effect of antagonist on ERK1/2 phosphorylation in the absence of dopamine [6]: did not exhibit any agonistic properties
- Block of dopamine-induced ERK1/2 activation [7]: no significant effect
- Effect on dopamine-mediated signalling via DD2R [9]: little or no effect
- Effect on dopamine-mediated signalling via CeDOP2S [10]: little or no effect
- Effect on dopamine-mediated signalling via CeDOP2L [11]: little or no effect

SMILES: COC[C@H]1OC(=O)c2coc3c2[C@@]1(C)C1=C(C3=O)[C@@H]2CCC(=O)[C@@]2(C)C[C@H]1OC(C)=O [wortmannin]
- Effect on D2-mediated ERK1/2 activation in CHO cells [2]: partially reduce
- Effect on D3-mediated ERK1/2 activation in CHO cells [3]: partially reduce

SMILES: Cl.Cl.OCCN1CCN(CC/C=C2/c3ccccc3Sc3ccc(C(F)(F)F)cc32)CC1 [flupenthixol, cis-(Z)-flupenthixol dihydrochloride]
- Block of tyramine-induced inhibition of forskolin-stimulated cAMP levels ([5]; 1 μM antagonist): no significant blocking effect
- Effect of antagonist on ERK1/2 phosphorylation in the absence of dopamine [6]: did not exhibit any agonistic properties
- Block of dopamine-induced ERK1/2 activation [7]: no significant effect
- Antagonist effect at invertebrate D2-like receptor DD2R at high concentration [9]: only a partial effect
- Antagonist effect at invertebrate D2-like receptor CeDOP2S at high concentration [10]: only a partial effect
- Antagonist effect at invertebrate D2-like receptor CeDOP2L at high concentration [11]: only a partial effect

SMILES: CNC[C@H](O)c1ccc(O)c(O)c1 [adrenaline, (-)-adrenaline]
- EC50 [4]: 1340 nM
- Concentration dependence of increase in forskolin-stimulated cAMP levels following pertussis toxin [14]: concentration-dependent effects
- Concentrations coupling AmphiAmR11 to an increase in cAMP levels [14]: above 1 µM
- Effect on forskolin-stimulated cAMP levels following pertussis toxin treatment [14]: increase in forskolin-stimulated cAMP levels
- Effect on ERK1/2 phosphorylation at 10 nM [6]: not able to increase
- Calcium response at 10 nM [15]: less effective than dopamine

SMILES: CN(C)CCCN1c2ccccc2Sc2ccc(Cl)cc21 [chlorpromazine]
- Effect on dopamine-mediated signalling via DD2R [9]: not to affect
- Effect on dopamine-mediated signalling via CeDOP2S [10]: not to affect
- Effect on dopamine-mediated signalling via CeDOP2L [11]: not to affect
